Where two headings read alike, the source gives them in different places.
Columns and labels:
[1] = test system: SKOV3 ovarian cancer cells; assay: Phototoxicity in SKOV3 cells (652 nm laser, AlamarBlue viability); type: cell-based, Human; conditions: for IC90: Homo sapiens, SK-OV-3, light or radiation study
Procedure, shortened: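 SKOV3 cells were loaded for 24 h with photosensitizer (0–10 μM in DMSO) in medium containing 10% Kollidon-12. After a media change they were irradiated at 652 nm, 50 mW/cm^2 for 5 min (15 J/cm^2), cultured a further 24 h, and viability was read by AlamarBlue in quadruplicate. Phototoxicity IC90 and dark-toxicity IC10 came from variable-slope normalized dose–response fits.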

[2] = test system: A549; assay: Phototoxicity, pan-cancer panel; type: cell-based; conditions: Homo sapiens, light or radiation study; A549, lung adenocarcinoma
Description: (§1) To test for phototoxicity, cells incubated with phyllochlorin analogues (0-10 μM in DMSO) had culture media replaced after 24 hours (as above) and were then exposed to a 652 nm laser (Invion) with laser density at 50 mW/cm^2 for 5 mins (total 15 J/cm^2). Following activation, cells were cultured for a further 24 hours. Media was then replaced with fresh media containing AlamarBlue, and % viable cells remaining assessed as above. Controls included cells treated with phyllochlorin analogues but not activated by laser light; cells without phyllochlorin analogue treatment but with laser light; and untreated controls. All measurements were made in quadruplicate.
(§2) The activity of phyllochlorin analogues against multiple cancer cell types was assessed as above, using compounds 3 and 6 as examples.

[3] = test system: B16F10; assay: Phototoxicity, pan-cancer panel; type: cell-based; conditions: Mus musculus, B16-F10, light or radiation study; B16F10, melanoma
Description: as §1, §2

[4] = test system: DLD-1; assay: Phototoxicity, pan-cancer panel; type: cell-based; conditions: Homo sapiens, light or radiation study; DLD-1, colorectal adenocarcinoma
Description: as §1, §2

[5] = test system: HEK293; assay: Phototoxicity, pan-cancer panel; type: cell-based; conditions: Homo sapiens, light or radiation study; HEK293, embryonic kidney
Description: as §1, §2

[6] = test system: HH; assay: Phototoxicity, pan-cancer panel; type: cell-based; conditions: Homo sapiens, light or radiation study, T cell lymphoma
Description: as §1, §2

[7] = test system: LP9; assay: Phototoxicity, pan-cancer panel; type: cell-based; conditions: light or radiation study; LP9, immortalised mesothelial cells
Description: as §1, §2

[8] = test system: MDA-MB-468; assay: Phototoxicity, pan-cancer panel; type: cell-based; conditions: Homo sapiens, light or radiation study; MDA-MB-468, breast adenocarcinoma (triple negative)
Description: as §1, §2

[9] = In vivo toxicity in wild type mice; conditions: intravenous or intraperitoneal injection, 0.5 to 5 mg/kg
Description: The potential application of compound 6 as a representative phyllochlorin species was explored in vivo. Wild type mice (Balb/C and C57BL/6) received compound 6 by intravenous or intraperitoneal injection, with doses ranging from 0.5 to 5 mg/kg.

Structure (SMILES): C=Cc1c(C)c2cc3nc(c(C)c4cc(C)c(cc5nc(cc1[nH]2)C(C)=C5CC)[nH]4)[C@@H](CCC(=O)N(C)CCCS[C@@H]1O[C@H](CO)[C@@H](O)[C@H](O)[C@H]1O)[C@@H]3C [Compound 6, 3-((7S,8S)-18-ethyl-2,5,8,12,17-pentamethyl-13-vinyl-7H,8H-porphyrin-7-yl)-N-methyl-N-(3-(((2S,3R,4S,5S,6R)-3,4,5-trihydroxy-6-(hydroxymethyl)tetrahydro-2H-pyran-2-yl)thio)propyl)propanamide]
- IC90 ([1]; SKOV3, ovarian clear cell (Table 2), read-out: Phototoxicity IC90): 190 nM
- IC90 ([1]; SKOV3, 24 h uptake, 652 nm laser 50 mW/cm2 5 mins (15 J/cm2), viability 24 h later, read-out: Cellular Toxicity: Phototoxicity IC90): 60 nM
- IC90 ([1]; SKOV3, read-out: Phototoxicity apparent IC90): < 100 nM
- Fold increase in cellular phototoxicity compared to compound 2 ([1]; SKOV3, IC90): approximately 4 fold
- IC90 [2]: 140 nM
- IC90 [3]: 640 nM
- IC90 [4]: 330 nM
- IC90 [5]: 200 nM
- IC90 [6]: 30 nM
- IC90 [7]: 30 nM
- IC90 [8]: 70 nM
- Adverse toxic events [9]: no adverse toxic events observed at any dose

Reference: patent publication US20230365577A1, “Photodynamic Therapy and Diagnosis” (RMW CHO Group Limited, priority 2020, published 2023)
